One test has as its target T1, CLEC-6 (Homo sapiens, UniProt Q8WXI8).
T1 construct: The extracellular domains of lectin receptors, TREMs and TLTs were cloned by the reverse-transcriptase polymerase chain reaction (RT-PCR); made in house; host or cells: 293-F (FreeStyle 293) cells
T1 sequence (Q8WXI8 39-215 limits assumed): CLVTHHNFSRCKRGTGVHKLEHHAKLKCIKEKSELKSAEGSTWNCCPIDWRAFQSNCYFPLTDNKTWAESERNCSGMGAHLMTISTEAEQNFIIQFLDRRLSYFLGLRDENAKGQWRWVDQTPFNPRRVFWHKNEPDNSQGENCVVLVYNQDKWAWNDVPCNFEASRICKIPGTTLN
In words: Sugar competition EIA, Fc.CLEC-6 binding to GLPS-F3. The conditions noted are these: sugar 1 mg/ml. On the procedure:
(§1) The interaction between GLPS-F3 and receptor.Fc was then tested. Unbiotinylated GLPS-F3 was immobilized at 100 ng/well as described above, and 100 μL receptor.Fc fusion protein (1 μg/ml in 2 mM MgCl2/2 mM CaCl2/1% BSA/TBST) was added into each well and incubated for 1 hour at room temperature. After washing with TBST, wells were incubated with peroxidase-conjugated goat anti-human IgG Ab (1:5000 dilution, Jackson ImmunoResearch Laboratories) in blocking buffer at room temperature for 30 min. Wells were incubated with 100 μL TMB substrate for 15 min after TBST washing and read at 450 nm in a Fusion plate reader (Perkin Elmer). The results were normalized with respect to Fc.Dectin-1 binding (Dectin-1 is a known lectin receptor that binds to β-1,3-glucan which is the backbone found in GLPS-F3). FIG. 6B depicts in graphical form the affinity of each receptor for GLPS-F3 relative to Dectin-1. […] There was also weaker but positive GLPS-F3 binding ability (25-50% binding intensity compared to Fc.dectin-1) found in Fc.NKG2D, Fc.MINCLE, Fc.mKCR, DCAL1.Fc, DEC205.Fc, Endo180.Fc and NKp30(NCR3).Fc.
(§2) To understand the interaction of GLPS-F3 with specific innate immunity receptors, the polysaccharides mannan and β-glucan and the monosaccharides D-mannose (Man), D-glucose (Glc), N-acetyl-glucosamine (GlcNAc), D-galactose (Gal), N-acetyl-galactosamine (GalNAc), L-fucose (Fuc) and sialic acid, were used in a competition assay. […] The assays were carried out as in Example 9, with the addition of 1 mg/ml of each polysaccharide or monosaccharide.

For a further test, the target named is T2, DVLR1/CLEC5A (Homo sapiens, UniProt Q9NY25).
T2 construct: expressed in transfected cells; host or cells: 293T cells
T2 sequence (Q9NY25 1-187 isoform Q9NY25-2): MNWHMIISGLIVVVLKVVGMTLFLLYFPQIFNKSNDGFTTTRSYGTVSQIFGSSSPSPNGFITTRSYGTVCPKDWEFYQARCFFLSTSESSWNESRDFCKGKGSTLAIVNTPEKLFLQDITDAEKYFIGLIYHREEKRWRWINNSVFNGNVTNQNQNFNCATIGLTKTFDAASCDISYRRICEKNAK
The experiment in a line: Sugar competition, biotinylated DV binding to DVLR1/CLEC5A-transfected 293T cells. The class given is cell-based. Particulars: flow cytometry. On the procedure: In FIG. 16b, complexes of DV (5×10^6 PFU) with receptor.Fc (5 μg) were immunoprecipitated and detected on westerns with mAb to DV envelope (E) protein. […] FIGS. 16d and 16e show sugar competition assays wherein both DC-SIGN (CLEC4L) and DVLR1/CLEC5A increase DV binding to human 293T cells (FIG. 16d), while addition of sugars inhibits biotinylated DV binding to DC-SIGN- (left panel) or DLVR1/CLEC5A- (right panel) transfected 293T cells in a dose-dependent manner as determined by flow cytometry (FIG. 16e). According to FIG. 16e, MFI represents mean fluorescence intensity. Units (U) for monosaccharide (mannose and fucose) and polysaccharide (mannan) are mM and mg/ml, respectively. […] Data are expressed as the mean±s.d. of three independent experiments. Two-tailed, Student's t-tests were performed.
There are two conserved N-linked glycosylation sites at Asn-67 and Asn-153 of E protein (Pokidysheva, E. et al., Cell 124:485-93 (2006)), and the attached glycans (with terminal fucose and mannose) have been implicated in cellular attachment and viral entry (Modis, Y. et al., J. Virol. 79:1223-1231 (2005)). To investigate the participation of glycans in the association of DVLR1/CLEC5A with DV, virions were incubated with fucose, mannose, or mannan; where the last two sugars are the ligands for DC-SIGN (Mitchell et al., J. Biol. Chem. 276: 28939-28945 ([…])).

A further test concerns the target T3, Langerin (Homo sapiens, UniProt Q9UJ71).
T3 construct: The extracellular domains of lectin receptors, TREMs and TLTs were cloned by the reverse-transcriptase polymerase chain reaction (RT-PCR); made in house; host or cells: 293-F (FreeStyle 293) cells
In words: Sugar competition EIA, Fc.Langerin binding to GLPS-F3. The conditions noted are these: sugar 1 mg/ml. On the procedure:
as §1, §2

A further test concerns the target T4, TLT-2.Fc (Homo sapiens, UniProt Q5T2D2).
T4 construct: The extracellular domains of lectin receptors, TREMs and TLTs were cloned by the reverse-transcriptase polymerase chain reaction (RT-PCR); made in house; host or cells: 293-F (FreeStyle 293) cells
T4 sequence (Q5T2D2 19-268 limits assumed): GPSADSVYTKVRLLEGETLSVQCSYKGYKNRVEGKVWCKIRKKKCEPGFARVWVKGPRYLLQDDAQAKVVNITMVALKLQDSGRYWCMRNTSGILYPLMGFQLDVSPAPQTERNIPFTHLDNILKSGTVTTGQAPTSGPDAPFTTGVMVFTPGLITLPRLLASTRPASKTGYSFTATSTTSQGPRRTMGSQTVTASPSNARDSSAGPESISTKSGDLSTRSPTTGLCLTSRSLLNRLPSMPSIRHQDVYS
The experiment in a line: Immunosorbent dot binding assay with TLT-2.Fc. The conditions noted are these: polysaccharide immobilized on PVDF membrane; receptor.Fc 1 μg/mL.

Another test deals with T5, KCR.Fc (Mus musculus, UniProt P70194).
T5 construct: the extracellular domains of DVLR1/CLEC5A (MDL-1), Dectin-1, KCR, and DC-SIGN (as a positive control) were fused to the Fc portion of human IgG1; made in house; host or cells: 293-F (FreeStyle 293) cells
T5 sequence (P70194 70-548 limits assumed): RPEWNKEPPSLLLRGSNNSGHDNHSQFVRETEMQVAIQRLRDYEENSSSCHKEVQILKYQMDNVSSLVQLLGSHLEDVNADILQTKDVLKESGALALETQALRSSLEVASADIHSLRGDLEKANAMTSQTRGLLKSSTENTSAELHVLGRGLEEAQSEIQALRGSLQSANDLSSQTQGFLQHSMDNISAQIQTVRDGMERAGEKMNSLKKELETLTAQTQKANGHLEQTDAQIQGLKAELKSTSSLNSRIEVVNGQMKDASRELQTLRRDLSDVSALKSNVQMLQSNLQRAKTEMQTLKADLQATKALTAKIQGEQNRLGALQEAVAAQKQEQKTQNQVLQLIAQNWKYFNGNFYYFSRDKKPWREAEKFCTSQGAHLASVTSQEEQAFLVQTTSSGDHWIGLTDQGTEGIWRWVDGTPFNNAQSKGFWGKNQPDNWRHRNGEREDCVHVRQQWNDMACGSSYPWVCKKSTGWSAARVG
In words: Immunosorbent dot binding assay with KCR.Fc. The conditions noted are these: polysaccharide immobilized on PVDF membrane; receptor.Fc 1 μg/mL.

T3 sequence (Q9UJ71 65-328 limits assumed): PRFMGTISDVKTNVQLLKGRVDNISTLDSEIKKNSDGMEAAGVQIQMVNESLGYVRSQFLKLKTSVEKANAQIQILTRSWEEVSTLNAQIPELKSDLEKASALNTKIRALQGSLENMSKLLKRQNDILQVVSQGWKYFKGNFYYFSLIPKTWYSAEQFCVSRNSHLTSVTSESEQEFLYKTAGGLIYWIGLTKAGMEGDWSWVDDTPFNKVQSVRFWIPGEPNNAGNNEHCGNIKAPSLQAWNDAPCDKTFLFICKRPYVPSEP

On to mannan, for which, at CLEC-6, the “Percentage of binding of CLEC-6 Fc fusion to GLPS-F3 relative to binding in absence of sugar competitor” value was determined as 75 ± 0.8%. Further, at DVLR1/CLEC5A, the “inhibition of binding of DVLR1/CLEC5A to DV” value was “to a lesser extent”. In addition, at Langerin, the “Percentage of binding of Langerin Fc fusion to GLPS-F3 relative to binding in absence of sugar competitor” value was 5 ± 0.9%; the “inhibition of interaction between Fc.Langerin and GLPS-F3” value worked out at 95%.
Regarding β-1,3-glucan [b-glucan], the “Percentage of binding of CLEC-6 Fc fusion to GLPS-F3 relative to binding in absence of sugar competitor” value on CLEC-6 was found to be 98 ± 7.3%. For the same compound, the “interaction with TLT-2.Fc in dot-binding assay” value at TLT-2.Fc is “only Dectin-1.Fc can bind”. Also, the “interaction with KCR.Fc in dot-binding assay” value on KCR.Fc was “only Dectin-1.Fc can bind”. For the same compound, the “Percentage of binding of Langerin Fc fusion to GLPS-F3 relative to binding in absence of sugar competitor” value at Langerin came to 77 ± 3.2%.
For the compound `C[C@H](O)[C@@H](O)[C@@H](O)[C@H](O)C=O` [Fuc, L-fucose], the “Percentage of binding of CLEC-6 Fc fusion to GLPS-F3 relative to binding in absence of sugar competitor” value on CLEC-6 is 82 ± 6.5%. At DVLR1/CLEC5A, the “inhibition of binding of DVLR1/CLEC5A to DV” value is “significantly reduced”. For the same compound, on Langerin, the “Percentage of binding of Langerin Fc fusion to GLPS-F3 relative to binding in absence of sugar competitor” value was determined as 76 ± 1.9%.

Values taken from patent US8460669B2, “Compositions and methods for identifying response targets and treating flavivirus infection responses” (Academia Sinica, priority 2005, dated 2013).
